“Also recorded” adds a separate entry of the source.
Key:
[1] = test system: BALB/c mice with spinal cord contusion; assay: spinal cord contusion (SCI) model, locomotor recovery and histology; format: in vivo, mouse
sPLA2 (GV) = target: T1, sPLA2 (GV) (Homo sapiens, UniProt P39877); assay: sPLA2 inhibition assay; format: biochemical; settings: at 0.091 mol fraction
T1 sequence (P39877 21-138): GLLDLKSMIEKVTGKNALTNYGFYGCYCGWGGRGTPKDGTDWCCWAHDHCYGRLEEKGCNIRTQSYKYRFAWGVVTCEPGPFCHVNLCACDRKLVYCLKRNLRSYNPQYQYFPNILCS
Procedure: The compounds described herein were tested for inhibition of PLA2s in in vitro assay systems. The data, summarized in the Examples, are represented as XI(50) values unless otherwise noted. XI(50) is defined as the inhibitor concentration that produced 50% inhibition. XI(50) is used as opposed to the more common IC50 because GIVA and GVIA PLA2 are active at a two-dimensional lipid interface rather than in three-dimensional solution. (Deems, Anal. Biochem., 287:1-16, 2000). For the groups that received delayed treatment after symptoms occurred, mice were treated with daily intraperitoneal injections of AX059 starting from the first day of clinical symptoms, beginning on day 11; and AX115 starting from the first day of clinical peak (i.e., score 4), beginning of day 14. All inhibitors were administered for 2 weeks. The selectivity of the compounds for the different PLA2s is shown as the percentage inhibition in Table 1. The XI(50) is the mole fraction of the inhibitor in the total substrate interface required to inhibit the enzyme by 50%. PLA2 inhibitors. It has been previously reported that long chain 2-oxoamides based on gamma-amino acids are potent inhibitors of cPLA2 (GIVA). […] A 2-oxoamide based on a glycine methyl ester, AX115, inhibits sPLA2 (GV) as well as cPLA2 (GIVA) and iPLA2 (GVIA). […]

human cPLA2 (GIVA) = target: T2, human cPLA2 (GIVA) (Homo sapiens, UniProt P47712); assay: cPLA2 (GIVA) specific mixed micelle assay; format: biochemical; settings: at 0.091 mol fraction
T2 sequence (P47712 1-749): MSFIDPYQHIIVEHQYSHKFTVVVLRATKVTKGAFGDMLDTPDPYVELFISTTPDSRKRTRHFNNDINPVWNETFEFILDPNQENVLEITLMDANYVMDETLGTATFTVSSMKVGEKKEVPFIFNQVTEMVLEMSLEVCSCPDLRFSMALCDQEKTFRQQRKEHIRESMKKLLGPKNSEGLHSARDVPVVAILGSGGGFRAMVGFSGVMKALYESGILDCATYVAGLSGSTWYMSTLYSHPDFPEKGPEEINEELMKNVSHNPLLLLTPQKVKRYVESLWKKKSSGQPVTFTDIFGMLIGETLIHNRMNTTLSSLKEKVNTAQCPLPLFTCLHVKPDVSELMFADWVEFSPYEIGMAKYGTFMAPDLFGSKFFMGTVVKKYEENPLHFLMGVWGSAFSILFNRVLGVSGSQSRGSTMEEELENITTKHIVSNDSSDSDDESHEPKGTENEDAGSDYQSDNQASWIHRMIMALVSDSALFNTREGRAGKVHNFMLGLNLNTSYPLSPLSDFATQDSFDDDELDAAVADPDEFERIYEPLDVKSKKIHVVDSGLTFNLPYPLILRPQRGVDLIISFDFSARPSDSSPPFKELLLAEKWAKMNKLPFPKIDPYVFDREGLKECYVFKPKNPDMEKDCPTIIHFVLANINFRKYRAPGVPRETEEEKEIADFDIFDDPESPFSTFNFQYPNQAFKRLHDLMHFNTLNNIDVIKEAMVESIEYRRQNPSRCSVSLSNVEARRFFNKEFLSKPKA
Procedure: The compounds described herein were tested for inhibition of PLA2s in in vitro assay systems. The data, summarized in the Examples, are represented as XI(50) values unless otherwise noted. XI(50) is defined as the inhibitor concentration that produced 50% inhibition. XI(50) is used as opposed to the more common IC50 because GIVA and GVIA PLA2 are active at a two-dimensional lipid interface rather than in three-dimensional solution. (Deems, Anal. Biochem., 287:1-16, 2000).
For the groups that received delayed treatment after symptoms occurred, mice were treated with daily intraperitoneal injections of AX059 starting from the first day of clinical symptoms, beginning on day 11; and AX115 starting from the first day of clinical peak (i.e., score 4), beginning of day 14. All inhibitors were administered for 2 weeks. The selectivity of the compounds for the different PLA2s is shown as the percentage inhibition in Table 1. The XI(50) is the mole fraction of the inhibitor in the total substrate interface required to inhibit the enzyme by 50%.
Compound AX115 was tested for its ability to inhibit human cPLA2 (GIVA) in a cPLA2 (GIVA) specific assay that uses mixed micelles of the substrate 1-palmitoyl-2-arachidonyl phosphatidylcholine and the detergent Triton X-100 (97:3) containing phosphatidylinositol 4,5-bisphosphate (400 μM) as previously described. […]

With CCCCCCCCCCCCCCC(=O)C(=O)NCC(=O)OC [AX115] the “neuron survival in ventral horn (cresyl violet)” value ([1]; 300 to 1000 μm rostral and caudal to lesion epicenter, 28 dpi, vs vehicle) was “significantly greater neuron survival; also recorded: significantly better survival of ventral horn neurons; also recorded: greater number of neuronal profiles”, the serotonergic innervation ([1]; 1000 μm caudal to lesion epicenter, 28 dpi, vs vehicle) was “significantly greater serotonergic innervation; also recorded: marked increase of serotonergic fibers” and the BMS score ([1]; 28 days after SCI, vehicle 4.6, 9-point scale) was 6.6. The “locomotor function (BMS scores) vs vehicle treated injured mice” value ([1]; daily i.p. 6.85 mg/kg from 1 h after contusion for 14 days, significant from 5 dpi, 6.85 mg/kg) was “marked improvement in the BMS scores; also recorded: markedly improved locomotor function”, the “myelin loss (Luxol fast blue)” value ([1]; epicenter and 300 μm rostral and caudal, 28 dpi, vs vehicle) was “marked reduction of myelin loss” and the “tissue sparing (GFAP staining)” value ([1]; lesion epicenter and adjacent regions, 28 dpi, vs vehicle) was “significant amount of tissue sparing; also recorded: significant tissue protection; also recorded: marked reduction in tissue loss”. For the same compound, the “improvement in BMS subscores (fine locomotor control)” value ([1]; vs vehicle) was 4 points, the “increase in the density of 5-HT fibers within the lateral funiculi and ventral horns” value ([1]; vs vehicle) was 3 fold and the “Inhibition sPLA2 GIVA/GV*” value (sPLA2 (GV)) was 52%. The “Inhibition cPLA2 GIVA” value (human cPLA2 (GIVA)) was 62%.

Source: US8420852B2, “Phospholipase A2 inhibitors and their use in treating neurological injury and disease” (The Regents of the University of California, priority 2007, dated 2013)
